Assay results reported in patent US20250230193A1, “CYCLIC COMPOUND HAVING SELECTIVE KRAS INHIBITORY EFFECT ON HRAS AND NRAS” (CHUGAI SEIYAKU KABUSHIKI KAISHA, priority 2022, published 2025).
Where a SMILES comes first, the peptide text is derived from it. Bridges are numbered along the chain shown (N, C = ends). [ ]: non-standard residue; d: D form. The star is where a group is joined. hPhe(3-Cl-4-CF3) = N[C@@H](CCc1ccc(C(F)(F)F)c(Cl)c1)C(=O)O; NPrPhe(4-CF3) = CCCN[C@@H](Cc1ccc(C(F)(F)F)cc1)C(=O)O; Pro(4-spirocPr) = O=C(O)[C@@H]1CC2(CC2)CN1; NMeGly(cPent) = CN[C@H](C(=O)O)C1CCCC1; NMeNva(3-Et) = CCC(CC)[C@H](NC)C(=O)O; NMeD = CN[C@@H](CC(=O)O)C(=O)O; NMeL = CN[C@@H](CC(C)C)C(=O)O; Morpholide = C1CN(*)CCO1; Ac5c = NC1(C(=O)O)CCCC1; Ac4c = NC1(C(=O)O)CCC1; NEtG = CCNCC(=O)O; Sar = CNCC(=O)O

Legend:
[1] = target: GDP-bound HRAS wild-type protein (Homo sapiens, UniProt P01112); assay: Binding to HRAS by surface plasmon resonance (SPR), Single Cycle Kinetics; settings: SPR; for HRAS/KRAS (ratio of KD value with respect to HRAS to KD value with respect to KRAS) / HRAS/KRAS (ratio of KD value for HRAS to KD value for KRAS): GDP-bound HRAS wild-type vs GDP-bound KRAS wild-type
Chain of GDP-bound HRAS wild-type protein (P01112 whole entry): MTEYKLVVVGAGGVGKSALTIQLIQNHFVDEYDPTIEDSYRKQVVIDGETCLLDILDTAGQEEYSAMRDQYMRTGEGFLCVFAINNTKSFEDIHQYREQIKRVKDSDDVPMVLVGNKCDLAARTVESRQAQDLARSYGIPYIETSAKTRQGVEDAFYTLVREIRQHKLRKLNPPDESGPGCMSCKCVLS

[2] = target: GDP-bound NRAS wild-type protein (Homo sapiens, UniProt P01111); assay: Binding to NRAS by surface plasmon resonance (SPR), Single Cycle Kinetics; settings: SPR; for NRAS/KRAS (ratio of KD value with respect to NRAS to KD value with respect to KRAS) / NRAS/KRAS (ratio of KD value for NRAS to KD value for KRAS): GDP-bound NRAS wild-type vs GDP-bound KRAS wild-type
Chain of GDP-bound NRAS wild-type protein (P01111 whole entry): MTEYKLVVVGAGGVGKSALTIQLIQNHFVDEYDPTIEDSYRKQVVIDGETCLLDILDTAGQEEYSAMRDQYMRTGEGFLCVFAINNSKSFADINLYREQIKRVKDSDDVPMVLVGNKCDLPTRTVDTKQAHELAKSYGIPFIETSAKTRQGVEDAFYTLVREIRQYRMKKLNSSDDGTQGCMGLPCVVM

Structure (SMILES): CCCN1C(=O)CN(C)C(=O)CN(CC)C(=O)[C@H]([C@@H](C)CC)NC(=O)[C@H](CC(C)C)N(C)C(=O)C[C@@H](C(=O)N2CCOCC2)N(C)C(=O)[C@H](C2CCCC2)N(C)C(=O)C2(CCCC2)NC(=O)[C@@H]2CC3(CC3)CN2C(=O)[C@H](CCc2ccc(C(F)(F)F)c(Cl)c2)NC(=O)CN(C)C(=O)[C@@H]1Cc1ccc(C(F)(F)F)cc1 [PP0295] ([NMeL]I[NEtG][Sar][NPrPhe(4-CF3)][Sar][hPhe(3-Cl-4-CF3)][Pro(4-spirocPr)][Ac5c][NMeGly(cPent)][NMeD]-Morpholide; lactam N-11)
- HRAS/KRAS (ratio of KD for GDP-bound HRAS wild-type to KD for KRAS) ([1]; KD ratio HRAS/KRAS): C (A compound having a KD ratio of 0.1 or more and less than 3 is denoted as C)
- NRAS/KRAS (ratio of KD for GDP-bound NRAS wild-type to KD for KRAS) ([2]; KD ratio NRAS/KRAS): B (a compound having 3 or more and less than 10 is denoted as B)

Structure (SMILES): CCO[C@@H]1C[C@H]2C(=O)NC3(CCC3)C(=O)N(C)[C@@H](C3CCCC3)C(=O)N(C)[C@H](C(=O)N(C)C)CC(=O)N(C)[C@@H](CCC(=O)N(C)C)C(=O)N[C@@H]([C@@H](C)CC)C(=O)N(C)CC(=O)N(C)[C@H]3C/C=C\CCN(C3=O)[C@@H](Cc3ccc(C(F)(F)F)cc3)C(=O)N(C)CC(=O)N[C@@H](CCc3cc(F)c(C(F)(F)F)c(F)c3)C(=O)N2C1 [PP1122]
- HRAS/KRAS (ratio of KD value with respect to HRAS to KD value with respect to KRAS) ([1]; KD ratio): B (a compound having 3 or more and less than 10 is denoted as B)
- NRAS/KRAS (ratio of KD value with respect to NRAS to KD value with respect to KRAS) ([2]; KD ratio): A (a compound having 10 or more and less than 20 is denoted as A)

Structure (SMILES): CCCO[C@H]1CCN2C(=O)[C@H](CCc3cc(F)c(C(F)(F)F)c(F)c3)NC(=O)CN(C)C(=O)[C@H](Cc3ccc(C(F)(F)F)cc3)N3CCCCC[C@@H](C3=O)N(C)C(=O)CN(C)C(=O)[C@H]([C@@H](C)CC)NC(=O)[C@H](CC(C)C)N(C)C(=O)C[C@@H](C(=O)N3CCOCC3)N(C)C(=O)[C@H](C3CCCC3)N(C)C(=O)C3(CCC3)NC(=O)[C@H]12 [PP1069]
- HRAS/KRAS (ratio of KD value with respect to HRAS to KD value with respect to KRAS) ([1]; KD ratio): B (a compound having 3 or more and less than 10 is denoted as B)
- NRAS/KRAS (ratio of KD value with respect to NRAS to KD value with respect to KRAS) ([2]; KD ratio): A (a compound having 10 or more and less than 20 is denoted as A)

Structure (SMILES): CCO[C@@H]1C[C@H]2C(=O)NC3(CC(C)(C)C3)C(=O)N(C)[C@@H](C(CC)CC)C(=O)N(C)[C@H](C(=O)N(C)C)CC(=O)N(C)[C@@H](C(C)C)C(=O)N[C@@H]([C@@H](C)CC)C(=O)N(C)CC(=O)N(C)[C@H]3C/C=C\CCN(C3=O)[C@@H](CC3CCC(F)(F)CC3)C(=O)N(C)CC(=O)N[C@@H](CCc3cc(F)c(C(F)(F)F)c(F)c3)C(=O)N2C1 [PP2481]
- HRAS/KRAS (ratio of KD value with respect to HRAS to KD value with respect to KRAS) [1]: A (a compound having 10 or more and less than 20 is denoted as A)
- NRAS/KRAS (ratio of KD value with respect to NRAS to KD value with respect to KRAS) [2]: A (a compound having 10 or more and less than 20 is denoted as A)

Structure (SMILES): CC[C@H](C)[C@@H]1NC(=O)[C@H](CC(C)C)NC(=O)C[C@@H](C(=O)N2CCOCC2)N(C)C(=O)[C@H](C2CCCC2)N(C)C(=O)C2(CCCC2)NC(=O)[C@@H]2CCCN2C(=O)[C@H](CCc2cc(F)c(C(F)(F)F)c(F)c2)NC(=O)CN(C)C(=O)[C@H](Cc2ccc(C(F)(F)F)cc2)N2CCCCC[C@@H](C2=O)N(C)C(=O)CN(C)C1=O [PP0516]
- HRAS/KRAS (ratio of KD value with respect to GDP-bound HRAS wild-type protein to KD value with respect to KRAS) ([1]; KD ratio HRAS/KRAS): B (a compound having 3 or more and less than 10 is denoted as B)
- NRAS/KRAS (ratio of KD value with respect to GDP-bound NRAS wild-type protein to KD value with respect to KRAS) ([2]; KD ratio NRAS/KRAS): B (a compound having 3 or more and less than 10 is denoted as B)

Structure (SMILES): CCCN(C)C(=O)[C@@H]1CC(=O)N(C)[C@@H](C2CC2)C(=O)N[C@@H]([C@@H](C)CC)C(=O)N(C)CC(=O)N(C)[C@H]2C/C=C\CCN(C2=O)[C@@H](Cc2ccc(C(F)(F)F)cc2)C(=O)N(C)CC(=O)N[C@@H](CCc2cc(F)c(C(F)(F)F)c(F)c2)C(=O)N2C[C@H](OCC)C[C@H]2C(=O)NC2(CCC2)C(=O)N(C)[C@@H](C2CCCC2)C(=O)N1C [PP1994]
- HRAS/KRAS (ratio of KD value for HRAS to KD value for KRAS) ([1]; KD ratio): A (a compound having 10 or more and less than 20 is denoted as A)
- NRAS/KRAS (ratio of KD value for NRAS to KD value for KRAS) ([2]; KD ratio): AA (a compound having 20 or more is denoted as AA)

Structure (SMILES): CCCN1C(=O)CN(C)C(=O)CN(C)C(=O)[C@H]([C@@H](C)CC)NC(=O)[C@H](CC(C)C)N(C)C(=O)C[C@@H](C(=O)N2CCOCC2)N(C)C(=O)[C@H](C(CC)CC)N(C)C(=O)C2(CCC2)NC(=O)[C@@H]2CCCN2C(=O)[C@H](CCc2ccc(C(F)(F)F)c(Cl)c2)NC(=O)CN(C)C(=O)[C@@H]1Cc1ccc(C(F)(F)F)cc1 [PP1958] ([NMeL]I[Sar][Sar][NPrPhe(4-CF3)][Sar][hPhe(3-Cl-4-CF3)]P[Ac4c][NMeNva(3-Et)][NMeD]-Morpholide; lactam N-11)
- HRAS/KRAS (ratio of KD value for HRAS to KD value for KRAS) ([1]; KD ratio): B (a compound having 3 or more and less than 10 is denoted as B)
- NRAS/KRAS (ratio of KD value for NRAS to KD value for KRAS) ([2]; KD ratio): B (a compound having 3 or more and less than 10 is denoted as B)
